From patent US7772241B2, “Variolin derivatives and their use as antitumor agents” (Pharma Mar S.A., priority 2001, dated 2010)
Like-named read-outs stand apart in the source and are kept apart here.

Columns and labels:
A-549 = experiment: Inhibition of cells growth by colorimetric (SRB) assay, A-549; settings: for GI50: read-out: GI50 A-549
Summary of the method: (§1)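 Human tumour cells seeded at 5×10^3/well in RPMI 1640 10% FBS, attached 18 h, then exposed 48 h to samples at 10 to 10^−8 μg/ml in DMSO/EtOH/PBS (0.5:0.5:99). Growth read by SRB staining after TCA fixation, OD 490 nm, triplicate wells; GI, TGI and LC derived.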

SK-MEL-28 = experiment: Inhibition of cells growth by colorimetric (SRB) assay, SK-MEL-28
Summary of the method: as §1

PANC-1 = experiment: Inhibition of cells growth by colorimetric (SRB) assay, PANC-1; settings: for GI50: read-out: GI50 PANC-1
Summary of the method: as §1

IGROV-ET = experiment: Inhibition of cells growth by colorimetric (SRB) assay, IGROV-ET
Summary of the method: as §1

HT-29 = experiment: Inhibition of cells growth by colorimetric (SRB) assay, HT-29
Summary of the method: as §1

IGROV-1 = experiment: Inhibition of cells growth by colorimetric (SRB) assay, IGROV-1; settings: for CC50: read-out: LC50 IGROV
Summary of the method: as §1

DU-145 = experiment: Inhibition of cells growth by colorimetric (SRB) assay, DU-145; settings: for GI50: read-out: GI50 DU-145
Summary of the method: as §1

LoVo-Dox = experiment: Inhibition of cells growth by colorimetric (SRB) assay, LoVo-Dox
Summary of the method: as §1

SK-BR-3 = experiment: Inhibition of cells growth by colorimetric (SRB) assay, SK-BR-3; settings: SRB assay, 48 hours exposure; for GI50: read-out: GI50 SK-BR-3; for CC50: read-out: LC50 SK-BR-3
Summary of the method: as §1

K-562 = experiment: Inhibition of cells growth by colorimetric (SRB) assay, K-562; settings: for GI50: read-out: GI50 K-562
Summary of the method: as §1

HMEC1 = experiment: Inhibition of cells growth by colorimetric (SRB) assay, HMEC1; settings: for TGI H-MEC-1: in M (unit assumed); for CC50: read-out: LC50 H-MEC-1
From the text: The finality of these assays is to interrupt the growth of a “in vitro” tumor cell culture by means a continued exhibition of the cells to the sample to be testing.
This form of the assay employs 96 well cell culture microplates of 9 mm diameter (Faircloth, 1988; Mosmann, 1983). Most of the cell lines are obtained from American Type Culture Collection (ATCC) derived from different human cancer types.
Cells are maintained in RPMI 1640 10% FBS, supplemented with 0.1 g/l penicillin and 0.1 g/l streptomycin sulphate and then incubated at 37° C., 5% CO2 and 98% humidity. For the experiments, cells were harvested from subconfluent cultures using trypsin and resuspended in fresh medium before plating.
Cells are seeded in 96 well microtiter plates, at 5×10^3 cells per well in aliquots of 195 μl medium, and they are allowed to attach to the plate surface by growing in drug free medium for 18 hours. Afterward, samples are added in aliquots of 5 μl in a ranging from 10 to 10^−8 μg/ml, dissolved in DMSO/EtOH/PBS (0.5:0.5:99). After 48 hours exposure, the antitumor effect are measured by the SRB methodology: cells are fixed by adding 50 μl of cold 50% (wt/vol) trichloroacetic acid (TCA) and incubating for 60 minutes at 4° C. Plates are washed with deionized water and dried. One hundred μl of SRB solution (0.4% wt/vol in 1% acetic acid) is added to each microtiter well and incubated for 10 minutes at room temperature. Unbound SRB is removed by washing with 1% acetic acid. Plates are air dried and bound stain is solubilized with Tris buffer. Optical densities are read on a automated spectrophotometric plate reader at a single wavelength of 490 nm.
The values for mean +/−SD of data from triplicate wells are calculated. Some parameters for cellular responses can be calculated: GI=growth inhibition, TGI=total growth inhibition (cytostatic effect) and LC=cell killing (cytotoxic effect).

SK-OV-3 = experiment: Inhibition of cells growth by colorimetric (SRB) assay, SK-OV-3
Summary of the method: as §1

LoVo = experiment: Inhibition of cells growth by colorimetric (SRB) assay, LoVo; settings: for CC50: read-out: LC50 LOVO
Summary of the method: as §1

LNCaP = experiment: Inhibition of cells growth by colorimetric (SRB) assay, LNCaP; settings: for CC50: read-out: LC50 LN-caP
Summary of the method: as §1

In the case of `Cc1ccc2c(-c3ccnc(N)n3)c3ccnc(N)n3c2n1` [Compound 24], the “TGI A-549” value (A-549; SRB assay, 48 hours exposure) is reported as 6.87E−06, the GI50 (A-549; SRB assay, 48 hours exposure) is reported as 1380 nM and the CC50 (A-549; read-out: LC50 A-549, SRB assay, 48 hours exposure) is reported as 17.5 µM. The “TGI MEL-28” value (SK-MEL-28; SRB assay, 48 hours exposure) was 3.43E−06, the GI50 (SK-MEL-28; read-out: GI50 MEL-28, SRB assay, 48 hours exposure) was 721 nM and the CC50 (SK-MEL-28; read-out: LC50 MEL-28, SRB assay, 48 hours exposure) was 12.6 µM. For the same compound, the “TGI PANC-1” value (PANC-1; SRB assay, 48 hours exposure) was 2.06E−05, the GI50 (PANC-1; SRB assay, 48 hours exposure) was 3.88 µM and the CC50 (PANC-1; read-out: LC50 PANC-1, SRB assay, 48 hours exposure) was at least 34.3 µM. For the same compound, the “TGI IGROV-ET” value (IGROV-ET; SRB assay, 48 hours exposure) was 7.11E−06, the GI50 (IGROV-ET; read-out: GI50 IGROV-ET, SRB assay, 48 hours exposure) was 1010 nM and the CC50 (IGROV-ET; read-out: LC50 IGROV-ET, SRB assay, 48 hours exposure) was at least 34.3 µM. For the same compound, the “TGI HT-29” value (HT-29; SRB assay, 48 hours exposure) was 3.43E−05, the GI50 (HT-29; read-out: GI50 HT-29, SRB assay, 48 hours exposure) was 16.4 µM and the CC50 (HT-29; read-out: LC50 HT-29, SRB assay, 48 hours exposure) was at least 34.3 µM. The “TGI IGROV” value (IGROV-1; SRB assay, 48 hours exposure) was 6.38E−06, the GI50 (IGROV-1; read-out: GI50 IGROV, SRB assay, 48 hours exposure) was 995 nM and the CC50 (IGROV-1; SRB assay, 48 hours exposure) was 23 µM. For the same compound, the CC50 (DU-145; Homo sapiens, DU-145, 48 h, read-out: LC50 DU-145, SRB assay, 48 hours exposure) was 15.6 µM, the “TGI DU-145” value (DU-145; SRB assay, 48 hours exposure) was 1.91E−06 and the GI50 (DU-145; SRB assay, 48 hours exposure) was 831 nM. The “TGI LOVO-DOX” value (LoVo-Dox; SRB assay, 48 hours exposure) was 3.43E−06, the GI50 (LoVo-Dox; read-out: GI50 LOVO-DOX, SRB assay, 48 hours exposure) was 642 nM and the CC50 (LoVo-Dox; read-out: LC50 LOVO-DOX, SRB assay, 48 hours exposure) was at least 34.3 µM. The “TGI SK-BR-3” value (SK-BR-3) was 4.77E−06, the GI50 (SK-BR-3) was 1040 nM and the CC50 (SK-BR-3) was 10.4 µM. The “TGI K-562” value (K-562; SRB assay, 48 hours exposure) was 7.35E−06, the GI50 (K-562; SRB assay, 48 hours exposure) was 1620 nM and the CC50 (K-562; read-out: LC50 K-562, SRB assay, 48 hours exposure) was 22.2 µM. For the same compound, the “TGI H-MEC-1” value (HMEC1; SRB assay, 48 hours exposure) was 7.86E−07, the GI50 (HMEC1; read-out: GI50 H-MEC-1, SRB assay, 48 hours exposure) was 247 nM and the CC50 (HMEC1; SRB assay, 48 hours exposure) was 2670 nM. The “TGI SKOV-3” value (SK-OV-3; SRB assay, 48 hours exposure) was 1.00E−05, the GI50 (SK-OV-3; read-out: GI50 SKOV-3, SRB assay, 48 hours exposure) was 1390 nM and the CC50 (SK-OV-3; read-out: LC50 SKOV-3, SRB assay, 48 hours exposure) was at least 34.3 µM. For the same compound, the “TGI LOVO” value (LoVo; SRB assay, 48 hours exposure) was 1.22E−06, the GI50 (LoVo; read-out: GI50 LOVO, SRB assay, 48 hours exposure) was 325 nM and the CC50 (LoVo; SRB assay, 48 hours exposure) was over 34.3 µM. For the same compound, the “TGI LN-caP” value (LNCaP; SRB assay, 48 hours exposure) was 7.24E−07, the GI50 (LNCaP; read-out: GI50 LN-caP, SRB assay, 48 hours exposure) was 174 nM and the CC50 (LNCaP; SRB assay, 48 hours exposure) was at least 34.3 µM.

With `Cl.Nc1nccc(-c2c3cc4ccccc4nc3n3c(N)nccc23)n1` [Compound 42] the CC50 (A-549; Homo sapiens, A549, 48 h, read-out: LC50 A-549, SRB assay, 48 hours exposure) was 14.3 µM, the “TGI A-549” value (A-549; SRB assay, 48 hours exposure) was 2.26E−06 and the GI50 (A-549; SRB assay, 48 hours exposure) was 135 nM. The GI50 (SK-MEL-28; Homo sapiens, SK-MEL-28, 48 h, read-out: GI50 MEL-28, SRB assay, 48 hours exposure) was 2560 nM, the CC50 (SK-MEL-28; Homo sapiens, SK-MEL-28, 48 h, read-out: LC50 MEL-28, SRB assay, 48 hours exposure) was 25 µM and the “TGI MEL-28” value (SK-MEL-28; SRB assay, 48 hours exposure) was 2.50E−05. For the same compound, the CC50 (PANC-1; Homo sapiens, PANC-1, 48 h, read-out: LC50 PANC-1, SRB assay, 48 hours exposure) was 25 µM, the “TGI PANC-1” value (PANC-1; SRB assay, 48 hours exposure) was 2.50E−05 and the GI50 (PANC-1; SRB assay, 48 hours exposure) was 8.87 µM. For the same compound, the GI50 (IGROV-ET; Homo sapiens, 48 h, read-out: GI50 IGROV-ET, SRB assay, 48 hours exposure) was 1700 nM, the CC50 (IGROV-ET; Homo sapiens, 48 h, read-out: LC50 IGROV-ET, SRB assay, 48 hours exposure) was 15.4 µM and the “TGI IGROV-ET” value (IGROV-ET; SRB assay, 48 hours exposure) was 5.45E−06. For the same compound, the GI50 (HT-29; Homo sapiens, HT-29, 48 h, read-out: GI50 HT-29, SRB assay, 48 hours exposure) was 1.99 µM, the CC50 (HT-29; Homo sapiens, HT-29, 48 h, read-out: LC50 HT-29, SRB assay, 48 hours exposure) was 25 µM and the “TGI HT-29” value (HT-29; SRB assay, 48 hours exposure) was 2.50E−05. For the same compound, the GI50 (IGROV-1; Homo sapiens, IGROV-1, 48 h, read-out: GI50 IGROV, SRB assay, 48 hours exposure) was 1560 nM, the “TGI IGROV” value (IGROV-1; SRB assay, 48 hours exposure) was 5.15E−06 and the CC50 (IGROV-1; SRB assay, 48 hours exposure) was 13 µM. For the same compound, the “TGI DU-145” value (DU-145; SRB assay, 48 hours exposure) was 6.10E−06, the GI50 (DU-145; SRB assay, 48 hours exposure) was 1480 nM and the CC50 (DU-145; read-out: LC50 DU-145, SRB assay, 48 hours exposure) was 21.1 µM. The GI50 (LoVo-Dox; Homo sapiens, 48 h, read-out: GI50 LOVO-DOX, SRB assay, 48 hours exposure) was 954 nM, the CC50 (LoVo-Dox; Homo sapiens, 48 h, read-out: LC50 LOVO-DOX, SRB assay, 48 hours exposure) was 15.5 µM and the “TGI LOVO-DOX” value (LoVo-Dox; SRB assay, 48 hours exposure) was 3.62E−06. The “TGI SK-BR-3” value (SK-BR-3) was 3.22E−07, the GI50 (SK-BR-3) was 67.7 nM and the CC50 (SK-BR-3) was 1.67 µM. For the same compound, the CC50 (K-562; Homo sapiens, K562, 48 h, read-out: LC50 K-562, SRB assay, 48 hours exposure) was 14.6 µM, the “TGI K-562” value (K-562; SRB assay, 48 hours exposure) was 7.69E−06 and the GI50 (K-562; SRB assay, 48 hours exposure) was 4070 nM. For the same compound, the GI50 (HMEC1; Homo sapiens, HMEC-1, 48 h, read-out: GI50 H-MEC-1, SRB assay, 48 hours exposure) was 114 nM, the “TGI H-MEC-1” value (HMEC1; SRB assay, 48 hours exposure) was 5.32E−07 and the CC50 (HMEC1; SRB assay, 48 hours exposure) was 1860 nM. For the same compound, the GI50 (SK-OV-3; Homo sapiens, SK-OV-3, 48 h, read-out: GI50 SKOV-3, SRB assay, 48 hours exposure) was 1080 nM, the CC50 (SK-OV-3; Homo sapiens, SK-OV-3, 48 h, read-out: LC50 SKOV-3, SRB assay, 48 hours exposure) was 21.5 µM and the “TGI SKOV-3” value (SK-OV-3; SRB assay, 48 hours exposure) was 5.32E−06. For the same compound, the GI50 (LoVo; Homo sapiens, LoVo, 48 h, read-out: GI50 LOVO, SRB assay, 48 hours exposure) was 884 nM, the “TGI LOVO” value (LoVo; SRB assay, 48 hours exposure) was 5.42E−06 and the CC50 (LoVo; SRB assay, 48 hours exposure) was 25 µM. The GI50 (LNCaP; Homo sapiens, LNCaP, 48 h, read-out: GI50 LN-caP, SRB assay, 48 hours exposure) was 432 nM, the “TGI LN-caP” value (LNCaP; SRB assay, 48 hours exposure) was 1.25E−06 and the CC50 (LNCaP; SRB assay, 48 hours exposure) was 5.97 µM.
